The values that follow are results of earlier work, collected in PMC4832308 (Cancer, 2015).

In data set [1] the test system is patients. The conditions noted are these: phase 1 study; cited from earlier work.
For data set [2], the system named is patients. Conditions: phase 1 study, cited from earlier work.

With `COc1ccc(-c2ccc3c(N4CCOC[C@@H]4C)nc(N4CCOC[C@@H]4C)nc3n2)cc1CO` [AZD8055], in data set [1], the “best response SD rate” value is recorded as 14.3% and the “patients with best response SD” value is recorded as 7 patients.
Turning to `CC(C)n1nc(-c2ccc3oc(N)nc3c2)c2c(N)ncnc21` [MLN0128], in data set [2] (MM), the “patients with a response” value is listed as 1 patient and the response rate is on record as 4%. The response duration in data set [2] (patient with MM) is listed as approximately 2 months. Besides, the “patients with SD” value in data set [2] is reported as 15 patients.
